Results taken from ChEMBL document CHEMBL5252520, “Inhibition of phospho-MurNAc-pentapeptide translocase (MraY) by nucleoside natural product antibiotics, bacteriophage ϕX174 lysis protein E, and cationic antibacterial peptides” (Bioorg Med Chem, 2016).
≈ marks a conversion by molar mass, not a printed value. Residues, ends and D or L forms follow the SMILES beside them.

Experiments:
[1] = test system: Escherichia coli; assay: Antibacterial activity against Escherichia coli assessed as reduction in bacterial growth; type: functional
[2] = Inhibition of bacterial MraY; design: species or system Bacteria
[3] = molecular target: T1, Phospho-N-acetylmuramoyl-pentapeptide-transferase (Bacillus subtilis (strain 168), UniProt Q03521); assay: Inhibition of Bacillus subtilis MraY
T1 sequence (Q03521 whole entry): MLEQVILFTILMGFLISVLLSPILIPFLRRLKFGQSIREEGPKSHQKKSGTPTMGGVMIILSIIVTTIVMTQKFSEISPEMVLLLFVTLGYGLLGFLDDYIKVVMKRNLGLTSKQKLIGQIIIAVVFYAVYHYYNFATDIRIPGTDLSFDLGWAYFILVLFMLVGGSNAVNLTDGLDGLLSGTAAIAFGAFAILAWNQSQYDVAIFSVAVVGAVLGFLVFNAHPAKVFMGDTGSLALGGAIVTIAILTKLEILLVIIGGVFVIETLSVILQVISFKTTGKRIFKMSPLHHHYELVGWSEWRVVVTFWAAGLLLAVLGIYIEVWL

[4] = test system: Pseudomonas aeruginosa; assay: Antibacterial activity against Pseudomonas aeruginosa H103 assessed as reduction in bacterial growth; type: functional
[5] = Inhibition of Campylobacter jejuni PgIC expressed in Escherichia coli by affinity chromatography
[6] = test system: Escherichia coli; assay: Antibacterial activity against Escherichia coli assessed as inhibition of bacterial growth; type: functional
[7] = Inhibition of Bacillus subtilis TagO
[8] = molecular target: T2, Decaprenyl-phosphate N-acetylglucosaminephosphotransferase (Mycolicibacterium smegmatis (strain ATCC 700084 / mc(2)155) (Mycobacteriumsmegmatis), UniProt A0R211); assay: Inhibition of Mycobacterium smegmatis ATCC 607 WecA
T2 sequence (A0R211 whole entry): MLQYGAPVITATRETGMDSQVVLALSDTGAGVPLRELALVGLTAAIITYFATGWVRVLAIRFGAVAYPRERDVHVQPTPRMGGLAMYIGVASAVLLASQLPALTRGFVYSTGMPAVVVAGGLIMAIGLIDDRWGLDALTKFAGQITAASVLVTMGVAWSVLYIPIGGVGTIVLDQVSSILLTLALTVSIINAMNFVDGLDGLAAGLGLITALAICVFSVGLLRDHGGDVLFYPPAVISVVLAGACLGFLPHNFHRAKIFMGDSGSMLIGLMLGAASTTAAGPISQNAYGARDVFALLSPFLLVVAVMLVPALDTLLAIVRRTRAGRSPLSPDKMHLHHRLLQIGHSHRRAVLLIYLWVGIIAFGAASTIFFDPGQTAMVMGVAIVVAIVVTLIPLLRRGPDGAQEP

[9] = molecular target: T3, Phospho-N-acetylmuramoyl-pentapeptide-transferase (Escherichia coli, UniProt E2QF15); assay: Inhibition of recombinant Escherichia coli MraY by fluorescence based analysis
T3 sequence (E2QF15 whole entry): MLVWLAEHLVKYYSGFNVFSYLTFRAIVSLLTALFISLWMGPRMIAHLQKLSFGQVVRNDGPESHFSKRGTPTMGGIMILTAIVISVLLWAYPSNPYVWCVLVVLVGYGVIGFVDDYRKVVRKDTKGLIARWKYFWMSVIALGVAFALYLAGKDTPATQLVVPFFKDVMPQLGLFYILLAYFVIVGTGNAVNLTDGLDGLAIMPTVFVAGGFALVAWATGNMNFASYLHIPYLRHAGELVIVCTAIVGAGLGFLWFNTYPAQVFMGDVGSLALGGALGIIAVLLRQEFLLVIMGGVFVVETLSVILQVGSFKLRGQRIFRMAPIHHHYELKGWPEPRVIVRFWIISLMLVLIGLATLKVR

SMILES	MIC [1]	IC50 [2]	other results
CC(C)C[C@H](NC(=O)CNC(=O)CNC(=O)[C@@H](N)CCCNC(=N)N)C(=O)N[C@@H](Cc1c[nH]c2ccccc12)C(=O)O (H-RGGLW-OH)		210 µM	
CC[C@H](C)[C@H](N)C(=O)N[C@@H](CC(C)C)C(=O)N1CCC[C@H]1C(=O)N[C@@H](Cc1c[nH]c2ccccc12)C(=O)N[C@@H](CCCCN)C(=O)N[C@@H](Cc1c[nH]c2ccccc12)C(=O)N1CCC[C@H]1C(=O)N[C@@H](Cc1c[nH]c2ccccc12)C(=O)N[C@@H](Cc1c[nH]c2ccccc12)C(=O)N1CCC[C@H]1C(=O)N[C@@H](Cc1c[nH]c2ccccc12)C(=O)N[C@@H](CCCN=C(N)N)C(=O)N[C@@H](CCCN=C(N)N)C(N)=O		90 µM	
CO[C@@H]1[C@@H](OC)[C@H](C)O[C@@H](OC(=O)C[C@@H](C)CC(=O)O[C@@H](CCCCCCCCCCC(C)C)CC(=O)O[C@H]2CN(C)[C@@H]([C@H](O[C@@H]3O[C@H](CN)[C@@H](O)[C@H]3O)[C@H]3O[C@@H](n4ccc(=O)[nH]c4=O)[C@H](O)[C@@H]3O)C(=O)N(C)[C@@H]2C(=O)O)[C@@H]1OC			IC50 [3]: 100 µM
CCCCCCCCOC(=O)[C@H](Cc1c[nH]c2ccccc12)NC(=O)[C@@H](N)CCCNC(=N)N	31 µg/mL (≈ 65.6 µM)	> 1000 µM	MIC [4]: 40 µg/mL (≈ 84.6 µM)
CSCC[C@H](NC(=O)N[C@@H](Cc1cccc(O)c1)C(=O)O)C(=O)N[C@@H](C(=O)N/C=C1\C[C@@H](O)[C@H](n2ccc(=O)[nH]c2=O)O1)[C@H](C)N(C)C(=O)[C@@H](N)Cc1cccc(O)c1			IC50 [5]: 40 µM
O=C(O)c1c(Cl)c(Cl)c(Cl)c(Cl)c1-c1c2cc(Br)c(=O)c(Br)c-2oc2c(Br)c(O)c(Br)cc12		32 µM	IC50 [3]: 850 µM
CC[C@H](C)[C@H](NC(=O)[C@H](Cc1c[nH]c2ccccc12)NC(=O)[C@@H](NC(=O)[C@@H](NC(=O)[C@H](Cc1c[nH]c2ccccc12)NC(=O)[C@H](CCCNC(=N)N)NC(=O)[C@@H](N)CCCNC(=N)N)[C@@H](C)CC)C(C)C)C(=O)N[C@@H](CCCNC(=N)N)C(=O)O (H-RRWIVWIR-OH)			MIC [4]: 8 µg/mL (≈ 6.75 µM); MIC [6]: 2 µg/mL (≈ 1.69 µM)
CC(C)C[C@H](NC(=O)CNC(=O)[C@H](Cc1c[nH]c2ccccc12)NC(=O)[C@@H](N)CCCNC(=N)N)C(=O)NCC(=O)O (H-RWGLG-OH)		274 µM	
NC[C@H]1O[C@@H](O[C@@H](Cn2cc(CCCCCO)nn2)[C@H]2O[C@@H](n3ccc(=O)[nH]c3=O)[C@H](O)[C@@H]2O)[C@H](O)[C@@H]1O			IC50 [7]: 0.05 µg/mL (≈ 0.0922 µM)
CCCCc1ccc(NC(=O)C2=CCN(C)[C@@H]([C@H](O[C@@H]3O[C@H](CN)[C@@H](O)[C@H]3O)[C@H]3O[C@@H](n4ccc(=O)[nH]c4=O)[C@H](O)[C@@H]3O)C(=O)N2C)cc1			IC50 [8]: 0.0581 µM
N=C(N)NCCC[C@H](N)C(=O)N[C@@H](Cc1c[nH]c2ccccc12)C(=O)NCC(=O)NCC(=O)N[C@@H](Cc1c[nH]c2ccccc12)C(=O)O (H-RWGGW-OH)		233 µM	
CCCCCCCCOC(=O)[C@H](Cc1c[nH]c2ccccc12)NC(=O)CN		790 µM	
CC(C)[C@H](NC(=O)N[C@H](C(=O)N[C@H](C(=O)NCCCN[C@@H](C[C@H]1O[C@@H](n2ccc(=O)[nH]c2=O)[C@H](O)[C@@H]1O)C(=O)O)[C@@H](O)C(C)C)[C@@H]1CCNC(=N)N1)C(=O)O			IC50 [9]: 2 µM
CC(C)C[C@H](NC(=O)CNC(=O)[C@H](Cc1c[nH]c2ccccc12)NC(=O)CN)C(=O)N[C@@H](Cc1c[nH]c2ccccc12)C(=O)O (H-GWGLW-OH)		209 µM	

Now from value to compound, other results behind:

MIC [1]	IC50 [2]	SMILES	other results
24 µg/mL (≈ 12.6 µM)		CSCC[C@H](NC(=O)[C@H](CCCNC(=N)N)NC(=O)[C@H](Cc1c[nH]c2ccccc12)NC(=O)[C@H](CCC(N)=O)NC(=O)[C@H](Cc1c[nH]c2ccccc12)NC(=O)[C@H](CCCNC(=N)N)NC(=O)[C@H](CCCNC(=N)N)NC(=O)[C@H](CS)NC(=O)[C@H](CCCCN)NC(=O)[C@@H](N)CCC(=O)O)C(=O)N[C@@H](CCCCN)C(=O)N[C@@H](CCCCN)C(=O)N[C@@H](CC(C)C)C(=O)NCC(=O)O (H-EKCRRWQWRMKKLG-OH)	
7 µg/mL (≈ 3.76 µM)		CC(C)[C@H](NC(=O)[C@@H](NC(=O)[C@H](Cc1c[nH]c2ccccc12)NC(=O)[C@H](CCCNC(=N)N)NC(=O)[C@H](Cc1c[nH]c2ccccc12)NC(=O)[C@H](Cc1c[nH]c2ccccc12)NC(=O)[C@H](CCCCN)NC(=O)[C@H](Cc1c[nH]c2ccccc12)NC(=O)[C@H](Cc1c[nH]c2ccccc12)NC(=O)[C@H](CCCCN)NC(=O)CN)[C@@H](C)O)C(=O)N1CCC[C@H]1C(=O)N[C@@H](Cc1ccccc1)C(=O)O (H-GKWWKWWRWTVPF-OH)	
	0.8 µM	CSCC[C@H](N)C(=O)N[C@H](C(=O)N[C@@H](CCCNC(=N)N)C(=O)N[C@@H](Cc1c[nH]c2ccccc12)C(=O)N[C@H](C(=O)N[C@@H](CC(C)C)C(=O)N[C@@H](Cc1c[nH]c2ccccc12)C(=O)N[C@@H](CC(=O)O)C(=O)N[C@H](C(=O)N[C@@H](CC(C)C)C(=O)N[C@@H](C)C(=O)N[C@@H](Cc1ccccc1)C(=O)N[C@@H](CC(C)C)C(=O)N[C@@H](CC(C)C)C(=O)N[C@@H](CC(C)C)C(=O)O)[C@@H](C)O)[C@@H](C)O)C(C)C (H-MVRWTLWDTLAFLLL-OH)	
20 µg/mL (≈ 10.5 µM)		CC(C)C[C@H](NC(=O)[C@H](Cc1ccccc1)NC(=O)[C@@H]1CCCN1C(=O)[C@H](Cc1c[nH]c2ccccc12)NC(=O)[C@H](Cc1c[nH]c2ccccc12)NC(=O)[C@H](Cc1c[nH]c2ccccc12)NC(=O)[C@@H]1CCCN1C(=O)[C@H](Cc1ccccc1)NC(=O)[C@H](CCCNC(=N)N)NC(=O)[C@H](CCCNC(=N)N)NC(=O)[C@@H](N)C(C)C)C(=O)N[C@@H](CCCNC(=N)N)C(=O)N[C@@H](CCCNC(=N)N)C(=O)O	MIC [4]: 1 µg/mL (≈ 0.526 µM)
1 µg/mL (≈ 0.742 µM)		CC[C@H](C)[C@H](NC(=O)[C@H](CCCCN)NC(=O)[C@H](CCCCN)NC(=O)[C@H](Cc1ccccc1)NC(=O)[C@H](CC(C)C)NC(=O)[C@H](CCCCN)NC(=O)[C@H](Cc1c[nH]c2ccccc12)NC(=O)[C@@H](N)CCCCN)C(=O)N[C@@H](CCC(=O)O)C(=O)N[C@@H](CCCCN)C(=O)O (H-KWKLFKKIEK-OH)	MIC [4]: 5 µg/mL (≈ 3.71 µM)
38 µg/mL (≈ 21.3 µM)	50 µM	CC[C@H](C)[C@H](N)C(=O)N[C@@H](CC(C)C)C(=O)N[C@@H](CCCNC(=N)N)C(=O)N[C@@H](Cc1c[nH]c2ccccc12)C(=O)N1CCC[C@H]1C(=O)N[C@@H](Cc1c[nH]c2ccccc12)C(=O)N[C@@H](Cc1c[nH]c2ccccc12)C(=O)N1CCC[C@H]1C(=O)N[C@@H](Cc1c[nH]c2ccccc12)C(=O)N[C@@H](CCCNC(=N)N)C(=O)N[C@@H](CCCNC(=N)N)C(=O)N[C@@H](CCCCN)C(=O)O (H-ILRWPWWPWRRK-OH)	MIC [4]: 19 µg/mL (≈ 10.7 µM)
20 µg/mL (≈ 20.1 µM)		CC(=O)N[C@@H](CCCNC(=N)N)C(=O)N[C@@H](CCCNC(=N)N)C(=O)N[C@@H](Cc1c[nH]c2ccccc12)C(=O)N[C@@H](Cc1c[nH]c2ccccc12)C(=O)N[C@@H](CS)C(=O)N[C@@H](Cc1ccccc1)C(=O)O (Ac-RRWWCF-OH)	MIC [4]: 45 µg/mL (≈ 45.2 µM)
	75 µM	CC[C@H](C)[C@H](NC(=O)[C@H](CCCNC(=N)N)NC(=O)[C@H](Cc1c[nH]c2ccccc12)NC(=O)[C@@H](NC(=O)[C@@H](NC(=O)[C@H](CC(C)C)NC(=O)[C@H](Cc1c[nH]c2ccccc12)NC(=O)[C@H](CCCNC(=N)N)NC(=O)[C@H](CCC(N)=O)NC(=O)[C@@H](N)C(C)C)[C@@H](C)CC)C(C)C)C(=O)N[C@@H](CCCNC(=N)N)C(=O)N[C@@H](CCCCN)C(=O)O (H-VQRWLIVWRIRK-OH)	MIC [6]: 8 µg/mL (≈ 4.84 µM)
